Results from patent publication US12097261B2, “CDK2 degraders and uses thereof” (Kymera Therapeutics, Inc., priority 2021, dated 2024).

Legend:
Type in all cases: cell-based
[1] = target: T1, CDK2 (Homo sapiens, UniProt P24941); test: CDK2 degradation by immunoblotting in OVCAR-8 cells; details: 24 h
T1 construct: endogenous in cells; host or cells: OVCAR-8
Protocol: (§1) CDK2 and CDK1 Degradation by Immunoblotting
(§2) Ovarian cancer cell line OVCAR-8 were cultured in 12-well plates in complete growth medium. A serial dilution of each compound was added to individual wells from a 2× stock solution, and cells were cultured for 24 hours. Cells were collected by centrifugation, and cell pellets lysed with addition of chilled RIPA buffer supplemented with protease/phosphatase inhibitors followed by incubation for 20 minutes on ice. Lysates were clarified by centrifugation and 5×SDS loading buffer was added to the supernatant followed by heating to 100° C. for 10 minutes. An aliquot of the samples were separated by SDS-PAGE and transferred to a nitrocellulose membrane. Immunoblotting was performed according to standard procedures using anti-CDK2 primary antibody (Abcam ab32147) at 1:1000 dilution and IRDye 800CW goat anti-Rabbit secondary antibody (LICOR) and imaged using a LICOR Odyssey instrument. Blots were stained with anti-beta-Actin primary antibody (Cell Signaling Technology mAb #4970) for normalization. The normalized CDK2/Actin values were calculated as a percent of DMSO treated cells and plotted to determine the concentration at which 50% of CDK2 signal is decreased (DC50). The determination of CDK1 degradation was determined similarly using anti-CDK1 primary antibody (Abcam ab131450).

[2] = target: T2, CDK1 (Homo sapiens, UniProt P06493); test: CDK1 degradation by immunoblotting in OVCAR-8 cells; details: 24 h
T2 construct: endogenous in cells; host or cells: OVCAR-8
Protocol: as §1, §2

[3] = target: T3, CCNE1 (Homo sapiens, UniProt P24864+P24941); test: CCNE1 degradation in MKN-1 cells by immunoblotting; details: 24 h, by WB, read-out: Cyclin E1 DC50, (MKN-1 by WB)
T3 construct: endogenous in cells; host or cells: MKN-1
Protocol: CCNE1 Degradation in MKN-1 Cells
Gastric cancer cell line MKN-1 were cultured in 6-well plates in complete growth medium. A serial dilution of each compound was added to individual wells from a 2× stock solution, and cells were cultured for 24 hours. Following 24-hr incubation, cells were lysed with addition of chilled RIPA buffer supplemented with protease/phosphatase inhibitors followed by incubation for 20 minutes on ice. Lysates were clarified by centrifugation and 5×SDS loading buffer was added to the supernatant followed by heating to 100° C. for 10 minutes. An aliquot of the samples were separated by SDS-PAGE and transferred to a nitrocellulose membrane. Immunoblotting was performed according to standard procedures using anti-CCNE1 primary antibody (Abcam #ab33911) at 1:1000 dilution and IRDye 800CW goat anti-Rabbit secondary antibody (LICOR) and imaged using a LICOR Odyssey instrument. Blots were stained with anti-beta-Actin primary antibody (Cell Signaling Technology mAb 43700) for normalization. The normalized CCNE1/Actin values were calculated as a percent of DMSO treated cells and plotted to determine the concentration at which 50% of CCNE1 signal is decreased.

T2 sequence (P06493 whole entry): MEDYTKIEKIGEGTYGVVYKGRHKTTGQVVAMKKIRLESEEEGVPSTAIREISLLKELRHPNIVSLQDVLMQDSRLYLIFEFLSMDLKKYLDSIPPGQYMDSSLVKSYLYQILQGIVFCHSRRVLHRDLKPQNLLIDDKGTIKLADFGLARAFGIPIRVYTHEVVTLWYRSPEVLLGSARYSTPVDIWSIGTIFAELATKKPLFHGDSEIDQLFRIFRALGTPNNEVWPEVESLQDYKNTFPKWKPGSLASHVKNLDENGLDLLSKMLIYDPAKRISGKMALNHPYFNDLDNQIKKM

Row | DC50 [1] [nM] | DC50 [2] [nM] | DC50 [3] [nM] | SMILES
1 | 10 to 100 | > 5000 | – | CC(C)NC(=O)O[C@@H]1CC[C@H](c2cc(NC(=O)c3cnn(CCOCCOCCOCCCc4ccc5c(c4)n(C)c(=O)n5C4CCC(=O)NC4=O)c3)n[nH]2)C1 (stereo partly drawn) [I-75]
2 | 100 to 1000 | > 5000 | – | CC(C)NC(=O)O[C@@H]1CC[C@H](c2cc(NC(=O)c3cnn(CCOCCOCCOCCOCCCc4ccc5c(c4)n(C)c(=O)n5C4CCC(=O)NC4=O)c3)[nH]n2)C1 (stereo partly drawn) [I-77]
3 | 10 to 100 | > 5000 | – | CC(C)NC(=O)O[C@@H]1CC[C@H](c2cc(NC(=O)c3ccnn3CCOCCOCCOCCCc3ccc4c(c3)n(C)c(=O)n4C3CCC(=O)NC3=O)[nH]n2)C1 (stereo partly drawn) [I-83]
4 | 10 to 100 | > 5000 | – | CC(C)NC(=O)O[C@@H]1CC[C@H](c2cc(NC(=O)c3cnn(CCCCCCCCCc4ccc5c(c4)n(C)c(=O)n5C4CCC(=O)NC4=O)c3)n[nH]2)C1 (stereo partly drawn) [I-91]
5 | 10 to 100 | 1000 to 5000 | – | CC(C)NC(=O)O[C@@H]1CC[C@H](c2cc(NC(=O)c3cnn(CCCCCCCCCc4cccc5c4n(C)c(=O)n5C4CCC(=O)NC4=O)c3)[nH]n2)C1 (stereo partly drawn) [I-92]
6 | 10 to 100 | > 5000 | – | CC(C)NC(=O)O[C@@H]1CC[C@H](c2cc(NC(=O)c3cnn(CCCCCCCCCCCc4ccc5c(c4)n(C)c(=O)n5C4CCC(=O)NC4=O)c3)[nH]n2)C1 (stereo partly drawn) [I-96]
7 | 10 to 100 | 1000 to 5000 | – | CC(C)NC(=O)O[C@@H]1CC[C@H](c2cc(NC(=O)c3cnn(CCCCCCCCCCCc4cccc5c4n(C)c(=O)n5C4CCC(=O)NC4=O)c3)[nH]n2)C1 (stereo partly drawn) [I-97]
8 | < 10 | > 5000 | – | CC(C)NC(=O)O[C@@H]1CC[C@H](c2cc(NC(=O)c3cc(COCCCCCCCCCc4ccc5c(c4)n(C)c(=O)n5[C@H]4CCC(=O)NC4=O)nn3C)n[nH]2)C1 [I-99]
9 | < 10 | 100 to 1000 | – | CC(C)NC(=O)O[C@@H]1CC[C@H](c2cc(NC(=O)c3cc(COCCCCCCCCCc4cccc5c4n(C)c(=O)n5[C@H]4CCC(=O)NC4=O)nn3C)n[nH]2)C1 [I-100]
10 | < 10 | 100 to 1000 | – | CC(C)NC(=O)O[C@@H]1CC[C@H](c2cc(CC(=O)c3cc(COCCCCCCCc4cccc5c4n(C)c(=O)n5C4CCC(=O)NC4=O)nn3C)[nH]n2)C1 (stereo partly drawn) [I-101]
11 | 10 to 100 | 100 to 1000 | – | CC(C)NC(=O)O[C@@H]1CC[C@H](c2cc(NC(=O)Cc3cnn(CCCCCCCCCc4ccc5c(c4)n(C)c(=O)n5C4CCC(=O)NC4=O)c3)[nH]n2)C1 (stereo partly drawn) [I-102]
12 | 10 to 100 | > 5000 | – | CC(C)NC(=O)O[C@@H]1CC[C@H](c2cc(NC(=O)Cc3cnn(CCCCCCCc4ccc5c(c4)n(C)c(=O)n5C4CCC(=O)NC4=O)c3)n[nH]2)C1 (stereo partly drawn) [I-103, (1R,3S)-3-(3-(2-(1-(7-(1-(2,6-dioxopiperidin-3-yl)-3-methyl-2-oxo-2,3-dihydro-1H-benzo[d]imidazol-5-yl)heptyl)-1H-pyrazol-4-yl)acetamido)-1H-pyrazol-5-yl)cyclopentyl isopropylcarbamate]
13 | 10 to 100 | 1000 to 5000 | – | CC(C)NC(=O)O[C@@H]1CC[C@H](c2cc(NC(=O)Cc3cnn(CCCCCCCCCc4cccc5c4n(C)c(=O)n5C4CCC(=O)NC4=O)c3)[nH]n2)C1 (stereo partly drawn) [I-104]
14 | < 10 | 100 to 1000 | < 10 | Cc1cc(S(=O)(=O)NCCO[C@H]2CC[C@H](CN3CCC(c4ccc5c(c4)n(C)c(=O)n5C4CCC(=O)NC4=O)CC3)CC2)ccc1Nc1ncc2cc(Cl)c(=O)n(C3CCCC3)c2n1 (stereo partly drawn) [I-108]
15 | < 10 | 100 to 1000 | < 10 | Cc1cc(S(=O)(=O)NCCO[C@H]2CC[C@H](CN3CCC(c4ccc5c(c4)n(C)c(=O)n5C4CCC(=O)NC4=O)CC3)CC2)ccc1Nc1ncc2ccc(=O)n(C3CCCC3)c2n1 (stereo partly drawn) [I-109]
16 | < 10 | 1000 to 5000 | – | Cc1cc(S(=O)(=O)N[C@H]2CC[C@H](OCCOCCCc3ccc4c(c3)n(C)c(=O)n4C3CCC(=O)NC3=O)CC2)ccc1Nc1ncc2ccc(=O)n(C3CCCC3)c2n1 (stereo partly drawn) [I-110]
17 | 10 to 100 | 1000 to 5000 | – | Cc1cc(S(=O)(=O)NCCOC2CC3(C2)CN(Cc2ccc4c(c2)n(C)c(=O)n4C2CCC(=O)NC2=O)C3)ccc1Nc1ncc2ccc(=O)n(C3CCCC3)c2n1 (stereo not drawn) [I-111]
18 | < 10 | 1000 to 5000 | – | Cc1cc(S(=O)(=O)N2CCC(CN(C)C3CCN(c4cccc5c4n(C)c(=O)n5C4CCC(=O)NC4=O)CC3)CC2)ccc1Nc1ncc2ccc(=O)n(C3CCCC3)c2n1 (stereo not drawn) [I-114]
19 | < 10 | 100 to 1000 | < 10 | Cc1cc(S(=O)(=O)NCCO[C@H]2CC[C@H](N(C)CC3CCN(c4ccc5c(c4)n(C)c(=O)n5C4CCC(=O)NC4=O)CC3)CC2)ccc1Nc1ncc2ccc(=O)n(C3CCCC3)c2n1 (stereo partly drawn) [I-117]
20 | < 10 | 1000 to 5000 | – | Cc1cc(S(=O)(=O)NCCOC2CCC3(CC2)CCN(CCCc2ccc4c(c2)n(C)c(=O)n4C2CCC(=O)NC2=O)CC3)ccc1Nc1ncc2ccc(=O)n(C3CCCC3)c2n1 (stereo not drawn) [I-124]
21 | < 10 | 1000 to 5000 | – | Cc1cc(S(=O)(=O)NCCOC2CC3(C2)CN(CC#Cc2ccc4c(c2)n(C)c(=O)n4C2CCC(=O)NC2=O)C3)ccc1Nc1ncc2ccc(=O)n(C3CCCC3)c2n1 (stereo not drawn) [I-126]
22 | > 5000 | > 5000 | – | Cc1cc(S(=O)(=O)NCCOCCOCCOCCOCCCc2ccc3c(c2)n(C)c(=O)n3C2CCC(=O)NC2=O)ccc1Nc1ncc2c(C)cc(=O)n(C3CCCC3)c2n1 (stereo not drawn) [I-138]
23 | > 5000 | > 5000 | – | Cc1cc(S(=O)(=O)NCCOCCOCCOCCOCC(=O)N[C@H](C(=O)N2C[C@H](O)C[C@H]2C(=O)NCc2ccc(-c3scnc3C)cc2)C(C)(C)C)ccc1Nc1ncc2ccc(=O)n(C3CCCC3)c2n1 [I-139]
24 | 10 to 100 | > 5000 | – | CC(C)NC(=O)O[C@@H]1CC[C@H](c2cc(NC(=O)c3cnn(CCCCCCCCCCCc4ccn5c(N6CCC(=O)NC6=O)cnc5c4)c3)[nH]n2)C1 [I-142]
25 | < 10 | 100 to 1000 | – | CC(C)NC(=O)O[C@H]1CC[C@@H](c2cc(NC(=O)c3cc(COCCCCCCCCCc4ccn5c(N6CCC(=O)NC6=O)cnc5c4)nn3C)[nH]n2)C1 [I-145]
26 | < 10 | 1000 to 5000 | – | Cc1cc(S(=O)(=O)NCCOCCOCCCc2ccc3c(c2)n(C)c(=O)n3C2CCC(=O)NC2=O)ccc1Nc1ncc2ccc(=O)n(C3CCCC3)c2n1 (stereo not drawn) [I-146]
27 | 1000 to 5000 | 1000 to 5000 | – | CN[C@@H](C)C(=O)N[C@H](C(=O)N1CCC[C@H]1c1nc(C(=O)c2cccc(OCCCCCCCCCCCn3cc(C(=O)Nc4cc([C@H]5CC[C@@H](OC(=O)NC(C)C)C5)n[nH]4)cn3)c2)cs1)C1CCCCC1 [I-148, (1R,3S)-3-(5-(1-(11-(3-(2-((S)-1-((S)-2-cyclohexyl-2-((S)-2-(methylamino)propanamido)acetyl)pyrrolidin-2-yl)thiazole-4-carbonyl)phenoxy)undecyl)-1H-pyrazole-4-carboxamido)-1H-pyrazol-3-yl)cyclopentyl isopropylcarbamate]
28 | 10 to 100 | > 5000 | – | CC(C)NC(=O)O[C@H]1CC[C@@H](c2cc(NC(=O)c3ccnn3CCOCCOCCOCCOCCCc3ccc4c(c3)n(C)c(=O)n4C3CCC(=O)NC3=O)n[nH]2)C1 (stereo partly drawn) [I-149]
29 | > 5000 | > 5000 | – | Cc1cc(S(=O)(=O)NCCOCCOCCCc2ccc3c(c2)n(C)c(=O)n3C2CCC(=O)NC2=O)ccc1Nc1ncc2c(n1)N(C1CCCC1)C(=O)C21CC1 (stereo not drawn) [I-150]
30 | 1000 to 5000 | > 5000 | – | CC(C)NC(=O)O[C@H]1CC[C@@H](c2cc(NC(=O)c3ccnn3CCN3CCN(CCOCCCc4ccc5c(c4)n(C)c(=O)n5C4CCC(=O)NC4=O)CC3)[nH]n2)C1 (stereo partly drawn) [I-151]
